Patent EP0503203A1, “Novel thrombin inhibitors” (MERRELL DOW PHARMACEUTICALS INC., priority 1991, dated 1992)

What was measured:
[1] = system: rats; experiment: FeCl₃-induced thrombosis model in rats; assay type: in vivo; settings: intravenously 10 mg/kg of body weight injection, followed by continuous 1 mg/kg/minute infusion, 4 rats
Excerpt: In vivo anti-thrombotic effects in rats may also be utilized for evaluation. […] Of course, actual dosage and frequency will vary dependent upon the nature and severity of the condition, age, general health conditions and such other factors well known and appreciated by the skilled attending diagnostician.

[2] = system: human plasma; experiment: Anticoagulant effect in human plasma, activated partial thromboplastin time (aPTT); assay type: biochemical
Excerpt: (§1) Anticoagulant data may be represented as follows:

[3] = system: human plasma; experiment: Anticoagulant effect in human plasma, thrombin time (TT); assay type: biochemical
Excerpt: as §1

[4] = system: HUMAN LUNG TRYPTASE; experiment: Inhibition of tryptase, progress curve analysis; assay type: biochemical; settings: non-linear regression (ENZFITTER)
Excerpt: Using standard in vitro methodology for determining inhibitory activity of tryptase (Journal of Biological Chemistry, Vol. 261, June 5, pp. 7372-7379, 1986), the following results have been obtained.

Structure (SMILES) | occlusion [1] | ID₂ aPTT (amount required for doubling the clotting time) [2] [µM] | ID₂ TT (amount required for doubling the clotting time) [3] [µM] | kon [4] [M⁻¹ s⁻¹]
N=C(N)NCCCC(NC(=O)[C@@H]1CCCN1C(=O)[C@H](N)Cc1ccccc1)C(=O)C(F)(F)C(F)(F)F (stereo partly drawn) [D-Phe-Pro-Arg-CF₂CF₃, D-phenylalanyl-N-[4-(aminoiminomethyl)amino]-1-(pentafluoropropionylbutyl]-L-prolineamide, 1.5 HF, O.5 CH₃CO₂H, 3H₂O] | preventing occlusion in two rats and prolonging occlusion in the other 2 of the 4 rats | 2 | 1 | 1200 ± 40
N=C(N)NCCCC(NC(=O)[C@@H]1CCCN1C(=O)[C@H](N)Cc1ccccc1)C(=O)C(F)(F)F (stereo partly drawn) [D-Phe-Pro-Arg-CF₃] |  | 148 | 43 | 370 ± 40
CN[C@H](Cc1ccccc1)C(=O)N1CCC[C@H]1C(=O)NC(CCCNC(=N)N)C(=O)C(F)(F)F (stereo partly drawn) [D-CH₃Phe-Pro-Arg-CF₃, N-Methyl-D-phenylalanyl-N[4-(aminoiminomethyl)amino-1-(trifluoroacetyl)butyl]-L-proline amide] |  | 218 | 108 | 200 ± 10
